Source: patent publication US20230019236A1, “PROTEIN TYROSINE PHOSPHATASE INHIBITORS AND METHODS OF USE THEREOF” (Calico Life Sciences LLC, priority 2019, published 2023)

Molecular target: T1, His tagged full-length PTP1B protein (Homo sapiens, UniProt P18031)
T1 construct: made in house
T1 sequence (P18031 with tags, fused parts or gaps): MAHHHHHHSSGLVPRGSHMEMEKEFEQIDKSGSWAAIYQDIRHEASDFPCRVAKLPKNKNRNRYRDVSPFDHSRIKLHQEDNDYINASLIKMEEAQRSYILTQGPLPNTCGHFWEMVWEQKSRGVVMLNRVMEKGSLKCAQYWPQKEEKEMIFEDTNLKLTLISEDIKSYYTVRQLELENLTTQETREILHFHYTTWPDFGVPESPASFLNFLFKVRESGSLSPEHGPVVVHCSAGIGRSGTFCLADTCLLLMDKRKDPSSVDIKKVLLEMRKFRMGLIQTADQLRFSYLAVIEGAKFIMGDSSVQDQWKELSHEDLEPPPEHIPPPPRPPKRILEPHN
Experiment: Mobility Shift Assay (MSA) used to determine potency of PTP1B inhibitors
Assay type: biochemical
Details: Table 2
Method: The enzymatic assay used to determine activity is a mobility shift assay using a LabChip EZ Reader by Caliper Life Sciences. The enzymatic reaction was carried out in assay buffer (50 mM HEPES pH 7.5, 1 mM EGTA, 10 mM EDTA, 0.01% Tween® 20, and 2 mM DTT). […] The enzyme (at 0.5 nM) was incubated with compound for 10 minutes at room temperature. […] The % inhibition was then used to calculate the IC50 values.

IC50 [nM]	Compound
10 to 100	O=C1CN(c2c(O)cc3ccc(OCC(F)F)cc3c2F)S(=O)(=O)N1 [Compound 302, 5-[7-(2,2-difluoroethoxy)-1-fluoro-3-hydroxynaphthalen-2-yl]-1λ^6,2,5-thiadiazolidine-1,1,3-trione]
1 to 10	O=C1CN(c2c(O)cc3ccc(OCCOCC4CC4)cc3c2F)S(=O)(=O)N1 [Compound 212, 5-{7-[2-(cyclopropylmethoxy)ethoxy]-1-fluoro-3-hydroxynaphthalen-2-yl}-1λ^6,2,5-thiadiazolidine-1,1,3-trione]
> 100	CCOc1ccc2cc(O)c(N3CC(=O)NS3(=O)=O)c(F)c2c1 [Compound 301, 5-(7-ethoxy-1-fluoro-3-hydroxynaphthalen-2-yl)-1λ^6,2,5-thiadiazolidine-1,1,3-trione]
10 to 100	O=C1CN(c2c(O)cc3ccc(CO)cc3c2F)S(=O)(=O)N1 [Compound 185, 5-[1-fluoro-3-hydroxy-7-(hydroxymethyl)naphthalen-2-yl]-1λ^6,2,5-thiadiazolidine-1,1,3-trione]
10 to 100	CC(C)CCCc1ccc2cc(O)c(N3CC(=O)NS3(=O)=O)c(F)c2c1 [Compound 219, 5-[1-fluoro-3-hydroxy-7-(4-methylpentyl)naphthalen-2-yl]-1λ^6,2,5-thiadiazolidine-1,1,3-trione]
10 to 100	O=C1CN(c2c(O)cc3ccc(/C=C/C4CC4)cc3c2F)S(=O)(=O)N1 [Compound 239, 5-{7-[(E)-2-cyclopropylethenyl]-1-fluoro-3-hydroxynaphthalen-2-yl}-1λ^6,2,5-thiadiazolidine-1,1,3-trione]
1 to 10	O=C1CN(c2c(O)cc3ccc(OCC4CCNCC4)cc3c2F)S(=O)(=O)N1 [Compound 114, 5-{1-fluoro-3-hydroxy-7-[(piperidin-4-yl)methoxy]naphthalen-2-yl}-1λ^6,2,5-thiadiazolidine-1,1,3-trione]
> 100	COc1ccc2c(Cl)c(O)c(N3CC(=O)NS3(=O)=O)c(F)c2c1 [Compound 238, 5-(4-chloro-1-fluoro-3-hydroxy-7-methoxynaphthalen-2-yl)-1λ^6,2,5-thiadiazolidine-1,1,3-trione]
1 to 10	CCNC(=O)NCCOc1ccc2cc(O)c(N3CC(=O)NS3(=O)=O)c(F)c2c1 [Compound 270, N-ethyl-N′-(2-{[8-fluoro-6-hydroxy-7-(1,1,4-trioxo-1λ^6,2,5-thiadiazolidin-2-yl)naphthalen-2-yl]oxy}ethyl)urea]
10 to 100	O=C1CN(c2c(O)cc3ccc(OC4CN(S(=O)(=O)C5CC5)C4)cc3c2F)S(=O)(=O)N1 [Compound 178, 5-(7-{[1-(cyclopropanesulfonyl)azetidin-3-yl]oxy}-1-fluoro-3-hydroxynaphthalen-2-yl)-1λ^6,2,5-thiadiazolidine-1,1,3-trione]
< 1	O=C1CN(c2c(O)cc3ccc(-c4cnn(CC5CC5)c4)cc3c2F)S(=O)(=O)N1 [Compound 132, 5-{7-[1-(cyclopropylmethyl)-1H-pyrazol-4-yl]-1-fluoro-3-hydroxynaphthalen-2-yl}-1λ^6,2,5-thiadiazolidine-1,1,3-trione]
1 to 10	COC/C=C/c1ccc2cc(O)c(N3CC(=O)NS3(=O)=O)c(F)c2c1 [Compound 245, 5-{1-fluoro-3-hydroxy-7-[(1E)-3-methoxyprop-1-en-1-yl]naphthalen-2-yl}-1λ^6,2,5-thiadiazolidine-1,1,3-trione]
1 to 10	O=C1CN(c2c(O)cc3ccc(C4CN(S(=O)(=O)C5CC5)C4)cc3c2F)S(=O)(=O)N1 [Compound 206, 5-{7-[1-(cyclopropanesulfonyl)azetidin-3-yl]-1-fluoro-3-hydroxynaphthalen-2-yl}-1λ^6,2,5-thiadiazolidine-1,1,3-trione]
1 to 10	O=C1CN(c2c(O)cc3ccc(C4=CCN(S(=O)(=O)C5CC5)CC4)cc3c2F)S(=O)(=O)N1 [Compound 297, 5-{7-[1-(cyclopropanesulfonyl)-1,2,3,6-tetrahydropyridin-4-yl]-1-fluoro-3-hydroxynaphthalen-2-yl}-1λ^6,2,5-thiadiazolidine-1,1,3-trione]
> 100	COc1ccc2c(Br)c(O)c(N3CC(=O)NS3(=O)=O)c(F)c2c1 [Compound 243, 5-(4-bromo-1-fluoro-3-hydroxy-7-methoxynaphthalen-2-yl)-1λ^6,2,5-thiadiazolidine-1,1,3-trione]

The next lines start with the compound.

Compound	IC50 [nM]
O=C1CN(c2c(O)cc3ccc(CC4CNC4)cc3c2F)S(=O)(=O)N1 [Compound 267, 5-{7-[(azetidin-3-yl)methyl]-1-fluoro-3-hydroxynaphthalen-2-yl}-1λ^6,2,5-thiadiazolidine-1,1,3-trione]	10 to 100
O=C1CN(c2c(O)cc3ccc(C4CC4)cc3c2F)S(=O)(=O)N1 [Compound 236, 5-(7-cyclopropyl-1-fluoro-3-hydroxynaphthalen-2-yl)-1λ^6,2,5-thiadiazolidine-1,1,3-trione]	> 100
CC(C)OCCOc1ccc2cc(O)c(N3CC(=O)NS3(=O)=O)c(F)c2c1 [Compound 215, 5-(1-fluoro-3-hydroxy-7-{2-[(propan-2-yl)oxy]ethoxy}naphthalen-2-yl)-1λ^6,2,5-thiadiazolidine-1,1,3-trione]	1 to 10
CCCOc1ccc2cc(O)c(N3CC(=O)NS3(=O)=O)c(F)c2c1 [Compound 278, 5-(1-fluoro-3-hydroxy-7-propoxynaphthalen-2-yl)-1λ^6,2,5-thiadiazolidine-1,1,3-trione]	10 to 100
O=C1CN(c2c(O)cc3ccc(C4CCNCC4)cc3c2F)S(=O)(=O)N1 [Compound 299, 5-[1-fluoro-3-hydroxy-7-(piperidin-4-yl)naphthalen-2-yl]-1λ^6,2,5-thiadiazolidine-1,1,3-trione]	10 to 100
O=C1CN(c2c(O)cc3ccc(OCC4CC4)cc3c2F)S(=O)(=O)N1 [Compound 250, 5-[7-(cyclopropylmethoxy)-1-fluoro-3-hydroxynaphthalen-2-yl]-1λ^6,2,5-thiadiazolidine-1,1,3-trione]	1 to 10
O=C1CN(c2c(O)cc3ccc(OCCN4CCC4)cc3c2F)S(=O)(=O)N1 [Compound 105, 5-{7-[2-(azetidin-1-yl)ethoxy]-1-fluoro-3-hydroxynaphthalen-2-yl}-1λ^6,2,5-thiadiazolidine-1,1,3-trione]	1 to 10
O=C1CN(c2c(O)cc3ccc(C4=CCN(S(=O)(=O)CCCC(F)(F)F)C4)cc3c2F)S(=O)(=O)N1 [Compound 290, 5-{1-fluoro-3-hydroxy-7-[1-(4,4,4-trifluorobutane-1-sulfonyl)-2,5-dihydro-1H-pyrrol-3-yl]naphthalen-2-yl}-1λ^6,2,5-thiadiazolidine-1,1,3-trione]	< 1
COCCS(=O)(=O)N1CC=C(c2ccc3cc(O)c(N4CC(=O)NS4(=O)=O)c(F)c3c2)C1 [Compound 286, 5-{1-fluoro-3-hydroxy-7-[1-(2-methoxyethanesulfonyl)-2,5-dihydro-1H-pyrrol-3-yl]naphthalen-2-yl}-1λ^6,2,5-thiadiazolidine-1,1,3-trione]	< 1
N#CCCCCOc1ccc2cc(O)c(N3CC(=O)NS3(=O)=O)c(F)c2c1 [Compound 111, 5-{[8-fluoro-6-hydroxy-7-(1,1,4-trioxo-1λ^6,2,5-thiadiazolidin-2-yl)naphthalen-2-yl]oxy}pentanenitrile]	1 to 10
O=C1CN(c2c(O)cc3ccc(CCC4CC4)cc3c2F)S(=O)(=O)N1 [Compound 209, 5-[7-(2-cyclopropylethyl)-1-fluoro-3-hydroxynaphthalen-2-yl]-1λ^6,2,5-thiadiazolidine-1,1,3-trione]	10 to 100
